The record followed here is patent publication US11497740B2, “Use of Jumonji C demethylase inhibitors for the treatment and prevention of chemotherapy resistance and radioresistance in cancer” (THE BOARD OF REGENTS OF THE UNIVERSITY OF TEXAS SYSTEM, priority 2016, dated 2022).

A value given as a limit tells only on which side of the number the result lay.

The test system of one assay is H1299 Parental cells. Briefly: Emergence of paclitaxel+carboplatin drug-tolerant colonies, H1299 Parental. Type of assay: cell-based, human. The settings on record: sub-lethal doses with paclitaxel+carboplatin. An excerpt: FIGS. 8A-8E. […] Response was greater than additive, indicated by positive ΔBliss. […] Representative images from replicate assays (n=3) are shown. […] See also FIGS. 15-16.

The test system of assay [1] is H1355 Parental xenografts. Briefly: Subcutaneous xenograft drug response, H1355 Parental. The format is in vivo, mice. The following applies: GSK-J4 100 mg/kg i.p. 5x per week; JIB-04 50 mg/kg oral gavage 3x per week; 4 weeks. On the procedure:
Animals were housed under standard, sterile conditions at UTSW animal facility. All experiments were carried out under approved IACUC protocols and followed UTSW animal care procedures. For tumor growth rate studies and docetaxel+cisplatin drug response comparisons, 6-8 week old female NOD/SCID mice were used. For all subsequent in vivo drug response studies, 6 week old female athymic nude mice were used (Charles River Labs, Jackson Labs). Experimental details are provided in supplemental information.
Parental and resistant NSCLC cell lines (1×10^6 cells in PBS or RPMI for H1299; 5×10^6 cells in PBS/matrigel for H1355 and HCC4017) were injected subcutaneously into the right flank of mice. Tumor growth was monitored by caliper measurements and tumor volume was calculated by 0.5×length×width^2). Treatment was started when tumors reached ˜150-200 mm3. Drug/Vehicle therapy was given to tumor volume matched pairs. Docetaxel (3 mg/kg) and cisplatin (3 mg/kg) were given i.p. once a week for 3 weeks. […]

Assay [2] concerns radioresistant (HCC95, HCC1195 and HCC2279) NSCLC cell lines. Briefly: Clonogenic survival with IR, radioresistant NSCLC lines. The format is cell-based, Human. The following applies: all radioresistant NSCLC lines tested. As to the method: Cells were serially diluted to appropriate concentrations and plated into 60-mm dish in triplicate for 4 h. Then cells were treated with the indicated drugs, and irradiated 4 hours later with graded doses of radiation for concurrent treatment or irradiated and 4 hours later the drugs added for post-treatment. All cells were irradiated at room temperature in ambient air using a 137Cs source (Mark 1-68 irradiator, JL Shepherd & Associated). Surviving colonies were stained with crystal violet approximately 10 to 14 days later and colonies formed with more than 50 cells were counted. Clonogenic fraction of irradiated cells was normalized to the plating efficiency of unirradiated controls. The data are presented as the mean±SD. The curve S=e^−(αD+βD2) was fitted to the experimental data using a least square fit algorithm using the program Sigma Plot 11.0 (Systat Software, Inc.).

Assay [3] deals with non-homologous end joining (NHEJ). Briefly: Green fluorescent protein NHEJ reporter assay, H1299. The format is cell-based, Human. The following applies: H1299 cells with integrated construct. On the procedure: The green fluorescent protein assay was performed as described by Seluanov et al. To generate reporter cell lines 2 million H1299 cells were transfected with 0.5 μg of linearized NHEJ-I, or HR reporter constructs using the Amaxa Nucleofector; program X-005. G418, at 1 mg/ml, was added to the media 1 day post-transfection. Then Transient expression of the I-SceI endonuclease was used to generate a DNA DSB at the integrated GFP gene sequences. Briefly, H1299 cells containing the NHEJ or the HR constructs treated by 4 h with JIB-04 or DMSO were transfected with the pCMV3xnls-I-SceI (5 μg, functional endonuclease) and a pN1-mCherry plasmid (0.05 μg) as transfection control as previously stated. For the analysis of NHEJ and HR cells were harvested, resuspended in ˜1 ml 1×PBS, put on ice, and run on a BD FACScan instrument. GFP and mCherry fluorescence was analyzed using FlowJo software. Red-versus-green was plotted and DNA repair efficiency was calculated from the number of GFP-positive cells divided by the number of cells mCherry-positive cells.
On the technique in general: A reporter such as luciferase makes a cellular process visible.

The test system of assay [4] is H3K4me3 demethylase Jumonji enzymes. Briefly: Histone demethylase activity in H1299 cellular extracts (H3K4me3). Type of assay: cell-based, Human. The settings on record: JIB-04 4 h. As to the method: For Histone demethylase activity determination 2×10^6 H1299 cells were seeded in P150 plates. After 24 h cells were pretreated with JIB-04 or DMSO for 4 h, irradiated with a total dose of 8 Gy of radiation. Then cells were sonicated (3×4 sec) and equal amounts of protein were incubated with a histone H3K4me3 or H3K9me3 substrate in a reaction buffer containing cofactors for 1 h at 37° C. Finally specific immune-detection of the H3K4me2 or H3K9me2 product using the Epigentek kit P-3081 for H3K9me3 demethylation and P-3083 for H3K4me3 demethylation. Background readings were given by heat inactivated extracts.

With `CCOC(=O)CCNc1cc(N2CCc3ccccc3CC2)nc(-c2ccccn2)n1` [GSK-J4], in the assay on H1299 Parental cells, the “emergence of drug-tolerant persister colonies” value was “prevented the emergence of drug-tolerant persister colonies”.

For `Clc1ccc(N/N=C(\c2ccccc2)c2ccccn2)nc1` [JIB-04], in assay [1], the “change in tumor volume relative to treatment start” value is listed as “continued to grow in volume”. Also, in assay [2], the “survival fraction at 2 Gy of radiation (SF2)” value is on record as “decreasing the survival fraction at 2 Gy of radiation (SF2)”. Moreover, the NHEJ repair efficiency in assay [3] is recorded as ≤ 50 % of normal levels. Further, the “IR-increased H3K4me3 demethylase activity” value in assay [4] (IR 8 Gy, 15 min after radiation) is given as “blocked this increased activity”. For the same compound, in assay [4] (no IR), the “basal H3K4me3 demethylase activity” value is recorded as “did not have any effects on basal activity”.
